Measured values from article PMC7160233, “Peptides With Triplet-Tryptophan-Pivot Promoted Pathogenic Bacteria Membrane Defects” (Frontiers in Microbiology, 2020).
Where a SMILES comes first, the peptide text is derived from it.

Key:
MRSA* 43300 = assay type: cell-based, methicillin-resistant Staphylococcus aureus; conditions: * 43300, 24 h
Experimental: (§1) The antibacterial activity of the peptides was measured using a method adopted from the Clinical Laboratory Standards Institute (CLSI), with modifications. 50 μL bacterial cells solution with 1000-fold of OD600 = 0.4 was mixed with 50 μL of each peptide of various concentration ranged from 2 to 64 μM dissolved in BSA (0.2% with 0.01% acetic acid) and incubated in sterile 96-well plates at 37°C for 24 h. The MICs were calculated as the lowest concentration of peptide with no microbial growth being observed. Broth with microbial cells and uninoculated broth were used as positive control and negative control, respectively. The tests were performed at least three times.

L. plantarum 8014 = assay type: cell-based; conditions: 24 h
Experimental: as §1

S. aureus 29213 = assay type: cell-based, Staphylococcus aureus; conditions: 29213, 24 h
Experimental: as §1

L. rhamnosus 1.0386 = assay type: cell-based, Lactobacillus rhamnosus; conditions: 24 h
Experimental: as §1

L. rhamnosus 1.0385 = assay type: cell-based, Lactobacillus rhamnosus; conditions: 24 h
Experimental: as §1

L. rhamnosus 1.9025 = assay type: cell-based, Lactobacillus rhamnosus; conditions: 24 h
Experimental: as §1

L. rhamnosus 1.0911 = assay type: cell-based, Lactobacillus rhamnosus; conditions: 24 h
Experimental: as §1

L. rhamnosus 7469 = assay type: cell-based, Lactobacillus rhamnosus; conditions: 24 h
Experimental: as §1

E. coli 25922 = assay type: cell-based, Escherichia coli; conditions: 25922, 24 h
Experimental: as §1

E. coli UB 1005 = assay: MIC measurement (modified CLSI broth microdilution); assay type: cell-based, Escherichia coli; conditions: peptide 2-64 μM in 0.2% BSA with 0.01% acetic acid, 37°C, 24 h, at least three times
Experimental: as §1

S. epidermidis 12228 = assay type: cell-based, Staphylococcus epidermidis; conditions: 12228, 24 h
Experimental: as §1

P. aeruginosa 27853 = assay type: cell-based, Pseudomonas aeruginosa; conditions: 27853, 24 h
Experimental: as §1

E. coli ATCC 25922 = assay: Drug resistance experiment (sequential passaging); assay type: cell-based, Escherichia coli; conditions: E. coli 25922, passaged at sub-MIC for 30 days
Experimental: Resistance development of E. coli ATCC 25922 against antibiotics was investigated using a sequential passaging method. Briefly, in the first generation, the MIC value was determined as described previously. After a 24 h incubation, bacterial cells growing in a well with a half-MIC level were harvested and diluted to 0.05 at OD600, followed by a 1:10 dilution in fresh MHB. The inoculum was subjected to subsequent passage MIC testing, and the process was repeated for 30 days. The fold change in MIC was plotted against the number of passages.

Lactobacillus = assay type: cell-based; conditions: probiotic strains of Table 2
Experimental: as §1

pathogens = assay: Geometric mean of MICs against pathogens; assay type: cell-based; conditions: six pathogenic strains of Table 2
Experimental: as §1

Row | Structure (SMILES) | MIC MRSA* 43300 (MRSA* 43300) [μ M] | MIC L. plantarum 8014 (L. plantarum 8014) [μ M] | MIC S. aureus 29213 (S. aureus 29213) [μ M] | MIC L. rhamnosus 1.0386 (L. rhamnosus 1.0386) [μ M] | MIC L. rhamnosus 1.0385 (L. rhamnosus 1.0385) [μ M] | MIC L. rhamnosus 1.9025 (L. rhamnosus 1.9025) [μ M] | MIC L. rhamnosus 1.0911 (L. rhamnosus 1.0911) [μ M] | MIC L. rhamnosus 7469 (L. rhamnosus 7469) [μ M] | MIC E. coli 25922 (E. coli 25922) [μ M] | MIC E. coli UB 1005 (E. coli UB 1005) [μ M] | MIC S. epidermidis 12228 (S. epidermidis 12228) [μ M] | MIC P. aeruginosa 27853 (P. aeruginosa 27853) [μ M] | resistance development (change in MIC on serial passaging) (E. coli ATCC 25922) | MIC against Lactobacillus (Lactobacillus) | geometric mean (GM) of MICs against pathogens (pathogens) [µM]
1 | N=C(N)NCCC[C@H](NC(=O)[C@H](CCCNC(=N)N)NC(=O)[C@H](Cc1c[nH]c2ccccc12)NC(=O)[C@H](CC(N)=O)NC(=O)[C@H](Cc1c[nH]c2ccccc12)NC(=O)[C@H](Cc1c[nH]c2ccccc12)NC(=O)[C@H](Cc1c[nH]c2ccccc12)NC(=O)[C@H](CC(N)=O)NC(=O)[C@H](Cc1c[nH]c2ccccc12)NC(=O)[C@H](CCCNC(=N)N)NC(=O)[C@@H](N)CCCNC(=N)N)C(N)=O [Peptide S3] (H-RRWNWWWNWRR-NH2) | >64 | >64 | >64 | >64 | >64 | >64 | >64 | >64 | >64 | >64 | >64 | >64 | – | – | –
2 | N=C(N)NCCC[C@H](NC(=O)[C@H](CCCNC(=N)N)NC(=O)[C@H](Cc1c[nH]c2ccccc12)NC(=O)[C@H](CS)NC(=O)[C@H](Cc1c[nH]c2ccccc12)NC(=O)[C@H](Cc1c[nH]c2ccccc12)NC(=O)[C@H](Cc1c[nH]c2ccccc12)NC(=O)[C@H](CS)NC(=O)[C@H](Cc1c[nH]c2ccccc12)NC(=O)[C@H](CCCNC(=N)N)NC(=O)[C@@H](N)CCCNC(=N)N)C(N)=O [Peptide S1] (H-RRWCWWWCWRR-NH2; N-terminus assumed) | 4 | 8 | 8 | >64 | 16 | >64 | >64 | >64 | >64 | 16 | 8 | 8 | – | – | –
3 | N=C(N)NCCC[C@H](NC(=O)[C@H](CCCNC(=N)N)NC(=O)[C@H](Cc1c[nH]c2ccccc12)NC(=O)[C@H](Cc1ccc(O)cc1)NC(=O)[C@H](Cc1c[nH]c2ccccc12)NC(=O)[C@H](Cc1c[nH]c2ccccc12)NC(=O)[C@H](Cc1c[nH]c2ccccc12)NC(=O)[C@H](Cc1ccc(O)cc1)NC(=O)[C@H](Cc1c[nH]c2ccccc12)NC(=O)[C@H](CCCNC(=N)N)NC(=O)[C@@H](N)CCCNC(=N)N)C(N)=O [Peptide S2] (H-RRWYWWWYWRR-NH2) | 8 | 4 | 8 | 16 | 16 | >64 | >64 | >64 | 32 | 32 | 8 | 8 | – | – | –
4 | N=C(N)NCCC[C@H](NC(=O)[C@H](CCCNC(=N)N)NC(=O)[C@H](Cc1c[nH]c2ccccc12)NC(=O)CNC(=O)[C@H](Cc1c[nH]c2ccccc12)NC(=O)[C@H](Cc1c[nH]c2ccccc12)NC(=O)[C@H](Cc1c[nH]c2ccccc12)NC(=O)CNC(=O)[C@H](Cc1c[nH]c2ccccc12)NC(=O)[C@H](CCCNC(=N)N)NC(=O)[C@@H](N)CCCNC(=N)N)C(N)=O [Peptide S6] (H-RRWGWWWGWRR-NH2) | 16 | >64 | 16 | >64 | >64 | >64 | >64 | >64 | 4 | 2 | >64 | 8 | – | – | –
5 | N=C(N)NCCC[C@H](NC(=O)[C@H](CCCNC(=N)N)NC(=O)[C@H](Cc1c[nH]c2ccccc12)NC(=O)[C@H](CCC(N)=O)NC(=O)[C@H](Cc1c[nH]c2ccccc12)NC(=O)[C@H](Cc1c[nH]c2ccccc12)NC(=O)[C@H](Cc1c[nH]c2ccccc12)NC(=O)[C@H](CCC(N)=O)NC(=O)[C@H](Cc1c[nH]c2ccccc12)NC(=O)[C@H](CCCNC(=N)N)NC(=O)[C@@H](N)CCCNC(=N)N)C(N)=O [Peptide S4] (H-RRWQWWWQWRR-NH2) | 4 | 8 | 4 | 64 | 16 | >64 | >64 | >64 | 4 | 4 | 4 | 4 | – | – | –
6 | CN(C)[C@@H]1C(O)=C(C(N)=O)C(=O)[C@@]2(O)C(O)=C3C(=O)c4c(O)cccc4[C@@](C)(O)[C@H]3C[C@@H]12 [tetracycline] | – | – | – | – | – | – | – | – | – | – | – | – | induced rapid resistance acquisition | – | –
7 | N=C(N)NCCC[C@H](NC(=O)[C@H](CCCNC(=N)N)NC(=O)[C@H](Cc1c[nH]c2ccccc12)NC(=O)[C@H](CO)NC(=O)[C@H](Cc1c[nH]c2ccccc12)NC(=O)[C@H](Cc1c[nH]c2ccccc12)NC(=O)[C@H](Cc1c[nH]c2ccccc12)NC(=O)[C@H](CO)NC(=O)[C@H](Cc1c[nH]c2ccccc12)NC(=O)[C@H](CCCNC(=N)N)NC(=O)[C@@H](N)CCCNC(=N)N)C(N)=O [Peptide S7] (H-RRWSWWWSWRR-NH2) | 2 | >64 | 4 | >64 | >64 | >64 | >64 | >64 | 4 | 2 | 4 | 4 | – | more than 64 μM | 3.17
8 | C[C@@H](O)[C@H](NC(=O)[C@H](Cc1c[nH]c2ccccc12)NC(=O)[C@H](Cc1c[nH]c2ccccc12)NC(=O)[C@H](Cc1c[nH]c2ccccc12)NC(=O)[C@@H](NC(=O)[C@H](Cc1c[nH]c2ccccc12)NC(=O)[C@H](CCCNC(=N)N)NC(=O)[C@@H](N)CCCNC(=N)N)[C@@H](C)O)C(=O)N[C@@H](Cc1c[nH]c2ccccc12)C(=O)N[C@@H](CCCNC(=N)N)C(=O)N[C@@H](CCCNC(=N)N)C(N)=O [Peptide S5] (H-RRWTWWWTWRR-NH2) | 4 | >64 | 1 | >64 | >64 | >64 | >64 | >64 | 2 | 2 | 2 | 4 | – | more than 64 μM | 2.24
